HELM strings list units from the 5' end as sugar, base in round brackets, then linkage (d deoxyribose, r ribose, m 2'-O-methyl, p phosphodiester). Strings are as the collection lists them, not checked against the first reports. ss, as = sense and antisense strand; [lna] = locked nucleic acid (LNA); [fl2r] = 2'-fluoro
Conditions: siRNA
Further: test system not given here.

“RNA1{r(G)p.r(G)p.r(A)p.r(A)p.r(G)p.r(U)p.r(C)p.r(C)p.m(A)p.r(C)p.r(C)p.r(U)p.r(U)p.r(C)p.r(U)p.r(C)p.r(C)p.r(G)p.r(A)p.r(T)p.r(T)}|RNA2{r(U)p.r(C)p.r(G)p.r(G)p.r(A)p.r(G)p.r(A)p.r(A)p.r(G)p.r(G)p.m(U)p.r(G)p.r(G)p.r(A)p.r(C)p.r(U)p.r(U)p.r(C)p.r(C)p.r(T)p.r(T)}$$$RNA1{StrandType:ss}|RNA2{StrandType:as}$” showed a target mRNA knockdown of 54%.

With “RNA1{r(C)p.r(U)p.r(G)p.r(A)p.r(C)p.r(C)p.r(G)p.r(G)p.r(A)p.r(A)p.r(G)p.r(C)p.r(G)p.r(C)p.r(U)p.m(U)p.r(A)p.r(A)p.r(A)p.r(T)p.r(T)}|RNA2{r(U)p.r(U)p.m(U)p.r(A)p.r(A)p.r(G)p.r(C)p.r(G)p.r(C)p.r(U)p.r(U)p.r(C)p.r(C)p.r(G)p.r(G)p.r(U)p.r(C)p.r(A)p.r(G)p.r(T)p.r(T)}$$$RNA1{StrandType:ss}|RNA2{StrandType:as}$” the target mRNA knockdown was 86%.

In the case of “RNA1{r(A)p.r(A)p.r(G)p.r(G)p.m(C)p.r(A)p.r(U)p.r(G)p.r(C)p.r(U)p.r(U)p.r(C)p.r(G)p.r(G)p.r(A)p.r(A)p.r(A)p.r(C)p.r(U)p.r(T)p.r(T)}|RNA2{r(A)p.r(G)p.r(U)p.r(U)p.r(U)p.r(C)p.r(C)p.r(G)p.r(A)p.r(A)p.r(G)p.m(C)p.r(A)p.r(U)p.r(G)p.r(C)p.r(C)p.r(U)p.r(U)p.r(T)p.r(T)}$$$RNA1{StrandType:ss}|RNA2{StrandType:as}$”, the target mRNA knockdown is reported as 95%.

With “RNA1{m(U)p.r(U)p.m(G)p.r(G)p.m(G)p.r(G)p.m(A)p.r(A)p.m(G)p.r(C)p.m(G)p.r(G)p.m(C)p.r(C)p.m(G)p.r(G)p.m(C)p.r(G)p.m(G)p.r(T)p.r(T)}|RNA2{r(C)p.r(C)p.r(G)p.r(C)p.r(C)p.r(G)p.r(G)p.r(C)p.r(C)p.r(G)p.r(C)p.r(U)p.r(U)p.r(C)p.r(C)p.r(C)p.r(C)p.m(A)p.m(A)p.r(T)p.r(T)}$$$RNA1{StrandType:ss}|RNA2{StrandType:as}$” the target mRNA knockdown was 36%.

“RNA1{r(A)p.r(G)p.r(U)p.r(U)p.r(U)p.r(C)p.[fl2r](U)p.r(A)p.r(G)p.r(G)p.r(G)p.r(C)p.r(C)p.r(G)p.[fl2r](U)p.r(G)p.r(G)p.r(C)p.r(C)p.r(T)p.r(T)}|RNA2{r(G)p.r(G)p.r(C)p.[fl2r](C)p.r(A)p.r(C)p.r(G)p.[fl2r](G)p.r(C)p.r(C)p.r(C)p.[fl2r](U)p.r(A)p.r(G)p.r(A)p.r(A)p.r(A)p.r(C)p.r(U)p.r(T)p.r(T)}$$$RNA1{StrandType:ss}|RNA2{StrandType:as}$” showed a target mRNA knockdown of 85%.

“RNA1{r(G)p.r(A)p.r(C)p.r(G)p.r(U)p.r(A)p.r(A)p.r(A)p.r(C)p.r(G)p.r(G)p.r(C)p.r(C)p.r(A)p.r(C)p.r(A)p.r(A)p.r(G)p.r(U)p.r(U)p.r(C)}|RNA2{r(A)p.r(C)p.[lna](T)p.r(U)p.r(G)p.[lna](T)p.r(G)p.r(G)p.r(C)p.r(C)p.r(G)p.r(U)p.r(U)p.[lna](T)p.r(A)p.r(C)p.r(G)p.[lna](T)p.r(C)p.[lna](G)p.[lna](C)}$$$RNA1{StrandType:ss}|RNA2{StrandType:as}$” gave a target mRNA knockdown of 0%.

For “RNA1{[fl2r](G)p.r(A)p.[fl2r](G)p.r(U)p.[fl2r](A)p.r(U)p.[fl2r](U)p.r(U)p.[fl2r](C)p.r(C)p.[fl2r](G)p.r(C)p.[fl2r](U)p.r(G)p.[fl2r](G)p.r(A)p.[fl2r](A)p.r(C)p.[fl2r](U)p.r(T)p.r(T)}|RNA2{r(A)p.r(G)p.r(U)p.r(U)p.r(C)p.r(C)p.r(A)p.r(G)p.r(C)p.r(G)p.r(G)p.r(A)p.r(A)p.r(A)p.r(U)p.r(A)p.r(C)p.r(U)p.r(C)p.r(T)p.r(T)}$$$RNA1{StrandType:ss}|RNA2{StrandType:as}$”, the target mRNA knockdown was 21%.

In the case of “RNA1{r(G)p.r(A)p.r(A)p.r(G)p.r(A)p.[fl2r](U)p.r(A)p.r(G)p.r(G)p.r(A)p.r(A)p.r(G)p.r(G)p.r(G)p.r(G)p.r(C)p.r(U)p.r(U)p.r(C)p.r(T)p.r(T)}|RNA2{r(G)p.r(A)p.r(A)p.r(G)p.r(C)p.r(C)p.r(C)p.r(C)p.r(U)p.r(U)p.r(C)p.r(C)p.[fl2r](U)p.r(A)p.r(U)p.r(C)p.r(U)p.r(U)p.r(C)p.r(T)p.r(T)}$$$RNA1{StrandType:ss}|RNA2{StrandType:as}$”, the target mRNA knockdown is reported as 56%.
